Legend:
[1] = system: IFN-γ protein; test: IFN-γ protein production by SLE T cells (ELISA); type: cell-based, human; conditions: SLE T cells activated with PMA+IO 24 hr in presence of TSA; P=0.011
Description: (§1) To determine whether TSA could down-regulate IL-10, a dose-response analysis was performed. […] However, when SLE T cells were cultured in the presence of TSA for 18 hr, no detectable IL-10 transcripts were identified (FIG. 2C, lanes 3, 6, 9). When IL-10 transcripts from all eight SLE subjects were quantified relative to GAPDH transcripts, TSA inhibited expression of IL-10 mRNA by 71% (FIG. 2D; P=0.029). […] IL-10 and IFN-γ protein production were quantified by ELISA (R & D Systems, Minneapolis, Minn.). […] Thus, like CD154, TSA was able to block expression of IL-10 transcript, abolishing IL-10 production by SLE T cells.
When T cells were activated with PMA+IO for 24 hr, IFN-γ production increased about 24-fold. However, activation of T cells in the presence of TSA further enhanced IFN-γ output by >12-fold (P=0.011) (FIG. 3C).

[2] = system: IL-10 protein; test: IL-10 protein production by SLE T cells (ELISA); type: cell-based, human
Description: as §1

[3] = system: mesangial cells; test: Nitric oxide production by MRL/lpr mesangial cells; type: cell-based, mouse; conditions: LPS 1 mg/ml, 24 hr
Source text: Excessive production of nitric oxide (NO) is crucial to the initiation and maintenance of glomerulonephritis in MRL/lpr mice. Pharmacologic inhibition of NO synthesis in MRL/lpr mice abrogates disease progression. In examining whether HDIs could suppress inducible nitric oxide synthetase (iNOS), splenocytes from 10 wk old mice were stimulated in the presence or absence of TSA or SAHA with LPS and IFN-γ for 24 hr. […] To determine whether HDIs could suppress nitric oxide secretion by mesangial cells, mesangial cells were stimulated with LPS ([…]) in the presence of vehicle or TSA for 24 hr. The supernatant from the cell culture was assayed for nitric oxide.

[4] = system: acetylated H3 and H4 histones; test: Immunoblot of acetylated H3 and H4 histones in MRL/lpr splenocytes; type: cell-based, mouse; conditions: 18 hr exposure
Source text: One mechanism by which HDIs suppress transcription of cytokine genes in MRL/lpr splenocytes may be by increasing accumulation of acetylated histones which may result in chromatin remodeling. The accumulation of acetylated histones H3 and H4 in HDI-treated splenocytes was quantified to test this hypothesis. FIG. 12 is an immunoblot analysis of the acetylation levels of H3 and H4 histones.

[5] = system: IL-6 mRNA; test: IL-6 mRNA in MRL/lpr splenocytes; type: cell-based, mouse
Description: In determining whether TSA or SAHA down-regulate IL-6 mRNA content, splenocytes from 24-wk MRL/lpr mice were treated with increasing concentrations of TSA for 18 hr. […] TSA decreased IL-6 transcript at a concentration of 100 ng/ml and exerted maximal inhibition at 300 ng/ml. To address whether TSA and SAHA down-regulate LPS- and IFN-γ induced IL-6 transcript levels, splenocytes from younger MRL/lpr mice were treated in the absence or presence of TSA or SAHA for 18 hr before LPS and IFN-γ stimulation for 6 or 18 hr. […] Next, the effect of TSA and SAHA on IL-6 protein secretion in stimulated splenocytes was measured (FIG. 10D). When splenocytes were cultured with LPS and IFN-γ for 72 hr, there was a mean (±SEM) 34.4±7.6 pg/ml of IL-6 protein secretion.

[6] = system: IL-10 mRNA; test: RT-PCR of IL-10 transcript in SLE T cells; type: cell-based, human
Description: T cells were cultured in the absence or presence of increasing concentrations of TSA for 18 hr in 5% CO2 at 37° C. RNA was isolated, cDNAs were prepared, and RT-PCR was performed as previously detailed (D. Laxminarayana, et al., J. Clin. Invest. 92, 2207 (1993)). The primers used were: […]
The reaction mixtures were subjected to 30 cycles of denaturation (94° C., 1 min) and annealing for 1 min at 53° C. (CD154), […] (GAPDH) and 55° C. (IL-10 and IFN-γ). Extension was for 2 min at 72° C. with a final extension of 7 min at 72° C. using a DNA thermal cycler (Perkin-Elmer).
as §1

[7] = system: acetylated histones H3 and H4 in the TGF-β1 promoter; test: Chromatin immunoprecipitation (ChIP) assay, TGF-β1 gene promoter; type: cell-based, human
Source text: The effect of HDAC inhibition on the acetylation of H3 or H4 associated with the TGF-β1 gene promoter was examined using the chromatin immunoprecipitation (ChIP) assay in an attempt to determine if HDIs induce accumulation of acetylated histones in chromatin associated with the TGF-β1 promoter in SLE PBMCs but not in healthy normal controls. The study undertaken included immunoprecipitating formaldehyde cross-linked, sonicated chromatin fragments from vehicle- and HDI-treated cells using anti-acetyl H3 and H4 antibodies, respectively. The immunoprecipitated DNA released from the bound protein was analyzed by quantitative PCR. A series of primer sets encompassing the TGF-β1 gene from −1.4 kbp to +0.6 kbp relative to the start site of transcription were created (FIG. 6A). Approximately a 12- and 4-fold enhancement of acetylated histones H3 and H4, respectively, in the TGF-β1 promoter in SLE was observed (FIGS. 6B & 6C).
To determine whether this effect was selective for the TGF-β1 gene in SLE PBMCs, the level of histone acetylation in the glucose-6-phosphate dehydrogenase (G6PD) gene was also examined. As shown in FIGS. 6E & 6F, there was no change in the levels of acetylated histones H3 and H4 at the G6PD gene in SLE PBMCs.

[8] = system: IFN-γ protein; test: IFN-γ protein secretion by MRL/lpr splenocytes; type: cell-based, mouse; conditions: Con A-stimulated splenocytes from younger MRL/lpr mice, 72 hr; p=0.004
Source text: The marked inhibition of IFN-γ transcript by these inhibitors prompted us to quantify IFN-γ protein secretion in splenocyte culture supernatants. Over 72 hr, Con A, but not LPS, stimulated splenocytes from younger MRL/lpr mice to secrete a mean (±SEM) 1,563.2±88.3 pg/ml of IFN-γ (FIG. 8D). […] Thus, inhibition of IFN-γ transcription by TSA and SAHA blocks secretion of IFN-γ protein by splenocytes.

[9] = system: IL-12 p40 protein; test: IL-12 p40 protein secretion by MRL/lpr splenocytes; type: cell-based, mouse; conditions: splenocytes stimulated with LPS and IFN-γ 24 hr; stimulated control 45.3±9.1; p=0.003
Description: When splenocytes were activated with LPS (100 μg/ml) and IFN-γ 100U/ml) for 24 hr the mean (±SEM) IL-12 p40 secretion was 45.3±9.1 pg/ml.

[10] = splenocytes from 24-wk MRL/lpr mice, 18 hr

CC(/C=C/C(=O)NO)=C\[C@@H](C)C(=O)c1ccc(N(C)C)cc1 [TSA, Trichostatin A]
further enhancement of IFN-γ output [1]: > 12 fold
inhibition of IL-10 synthesis ([2]; SLE T cells, at 24 hr): complete inhibition
inhibition of IL-10 production ([2]; SLE T cells, within 6 hr): 90%
TSA concentration of maximal inhibition of IL-10 protein production ([2]; T cells from eight SLE subjects, 18 hr): 300 ng/mL
LPS-induced nitric oxide production [3]: able to suppress
accumulation of acetylated H3 and H4 histones [4]: marked increase
TSA concentration of maximal inhibition of IL-6 transcript [5, 10]: 300 ng/mL
TSA concentration that decreased IL-6 transcript [5, 10]: 100 ng/mL
LPS- and IFN-γ induced IL-6 mRNA ([5]; splenocytes from younger MRL/lpr mice pretreated 18 hr, stimulated 6 or 18 hr): no detectable IL-6 mRNA
TSA concentration at which no detectable IL-10 mRNA was identified ([6]; SLE T cells, dose-response, RT-PCR): 700 to 800 ng/mL
inhibition of expression of IL-10 mRNA ([6]; eight SLE subjects, TSA 1000 ng/ml 18 hr, relative to GAPDH, P=0.029): 71%
acetylated state of G6PD gene ([7]; SLE PBMCs): does not change
enhancement of acetylated histone H3 in the TGF-β1 promoter ([7]; SLE PBMCs, ChIP): ~12 fold
enhancement of acetylated histone H4 in the TGF-β1 promoter ([7]; SLE PBMCs, ChIP): ~4 fold
enhancement of acetylated histones H3 and H4 at the TGF-β1 promoter ([7]; normal PBMCs treated with TSA): essentially no enhancement
IFN-γ protein secretion [8]: did not secrete detectable levels
IL-12 p40 secretion (mean±SEM) [9]: 1.5 ± 1.4 pg/mL

Reference: US7271198B2, “Method of treating autoimmune diseases” (Wake Forest University, priority 2000, dated 2007)
